# Values of other authors in article PMC12216204 (Scientific Reports, 2025).
# What was measured:
# [1] = system: orthotopic MDA-MB-231 (TNBC) tumors
proteolytic stability,accumulation in mice bearing orthotopic MDA-MB-231 (TNBC) tumors [1],Substance,uptake by the non-cancerous cells (non-cancerous cells)
not proteolytically stable,,WXEAAYQRFL [compound 18],
proteolytically stable,accumulated primarily at the tumor site,WXEAAYQkFL (head to tail) [cy18-4],minimal uptake
